# Biological target: T1, LHRH rat pituitary receptor (Rattus norvegicus, UniProt P30969)
# T1 construct: from tissue; host or cells: rat pituitary
# T1 sequence (P30969 1-327): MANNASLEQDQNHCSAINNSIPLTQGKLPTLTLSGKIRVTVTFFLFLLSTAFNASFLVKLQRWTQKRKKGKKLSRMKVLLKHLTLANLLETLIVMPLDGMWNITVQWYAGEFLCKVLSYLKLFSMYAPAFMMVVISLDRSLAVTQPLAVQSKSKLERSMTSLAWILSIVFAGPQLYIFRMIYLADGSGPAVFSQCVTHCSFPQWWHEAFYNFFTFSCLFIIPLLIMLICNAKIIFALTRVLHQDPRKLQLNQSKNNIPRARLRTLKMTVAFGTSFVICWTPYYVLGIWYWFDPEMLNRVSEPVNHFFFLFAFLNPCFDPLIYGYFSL
# Assay: LHRH rat pituitary receptor binding (pKI)
# Conditions: negative logarithm of the equilibrium dissociation constants, Table 1, read-out: receptor binding affinity (pKI) (converted)
# Method: Representative compounds of the present invention were evaluated in in vitro tests for LHRH rat pituitary receptor binding (pKI) and for LH inhibition from rat pituitary cells for antagonist potency (pA2). The tests employed the methods detailed in F. Haviv, et al. J. Med. Chem., 32: 2340-2344 (1989). The receptor binding affinity (pKI) is the negative logarithm of the equilibrium dissociation constants.
row,Ki [nM],SMILES
1,3.16,"CC[C@H]1OC(=O)[C@H](C)[C@@H](O[C@H]2C[C@@](C)(OC)[C@@H](O)[C@H](C)O2)[C@H](C)[C@@H](O[C@@H]2O[C@H](C)C[C@H](N(C)Cc3ccc(OCCO)cc3)[C@H]2O)[C@](C)(OC)C[C@@H](C)C(=O)[C@H](C)[C@H]2N(CCc3ccc(F)c(Cl)c3)C(=O)O[C@]12C [Example 49, 3'-N-Desmethyl-3'-N-(4-hydroxyethoxybenzyl)-11-deoxy-11-[carboxy-(3-chloro-4-fluorophenethylamino)]-6-O-methyl-erythromycin A 11,12-(cyclic carbamate)]"
2,0.977,"CC[C@H]1OC(=O)[C@H](C)[C@@H](O[C@H]2C[C@@](C)(OC)[C@@H](O)[C@H](C)O2)[C@H](C)[C@@H](O[C@@H]2O[C@H](C)C[C@H](N(C)CCC(C)SC)[C@H]2O)[C@](C)(OC)C[C@@H](C)C(=O)[C@H](C)[C@H]2N(CCc3ccc(F)c(Cl)c3)C(=O)O[C@]12C (some centres unmarked) [Example 50, 3'-N-Desmethyl-3'-N-(3-methylthio)butyl-11-deoxy-11-[carboxy-(3-chloro-4-fluorophenethylamino)]-6-O-methyl-erythromycin A 11,12-(cyclic carbamate)]"
3,6.31,"CC[C@H]1OC(=O)[C@H](C)[C@@H](O[C@H]2C[C@@](C)(OC)[C@@H](O)[C@H](C)O2)[C@H](C)[C@@H](O[C@@H]2O[C@H](C)C[C@H](N(C)CCCC(F)(F)F)[C@H]2O)[C@](C)(OC)C[C@@H](C)C(=O)[C@H](C)[C@H]2N(CCc3ccc(F)c(Cl)c3)C(=O)O[C@]12C [Example 51, 3'-N-Desmethyl-3'-N-(4,4,4-trifluorobutyl)-11-deoxy-11-[carboxy-(3-chloro-4-fluorophenethylamino)]-6-O-methyl-erythromycin A 11,12-(cyclic carbamate)]"
4,7.94,"CC[C@H]1OC(=O)[C@H](C)[C@@H](O[C@H]2C[C@@](C)(OC)[C@@H](O)[C@H](C)O2)[C@H](C)[C@@H](O[C@@H]2O[C@H](C)C[C@H](N(C)C3CCC3)[C@H]2O)[C@](C)(OC)C[C@@H](C)C(=O)[C@H](C)[C@H]2N(CCc3ccc(Cl)c(F)c3)C(=O)O[C@]12C [Example 52, 3'-N-Desmethyl-3'-N-cyclobutyl-11-deoxy-11-[carboxy-(4-chloro-3-fluorophenethylamino)]-6-O-methyl-erythromycin A 11,12-(cyclic carbamate)]"
5,3.02,"CC[C@H]1OC(=O)[C@H](C)[C@@H](O[C@H]2C[C@@](C)(OC)[C@@H](O)[C@H](C)O2)[C@H](C)[C@@H](O[C@@H]2O[C@H](C)C[C@H](N(C)C(C)C)[C@H]2O)[C@](C)(OC)C[C@@H](C)C(=O)[C@H](C)[C@H]2N(CCc3ccc(F)c(F)c3)C(=O)O[C@]12C [Example 53, 3'-N-Desmethyl-3'-N-isopropyl-11-deoxy-11-[carboxy-(3,4-difluorophenethylamino)]-6-O-methyl-erythromycin A 11,12-(cyclic carbamate)]"
6,4.07,"CCCN(C)[C@H]1C[C@@H](C)O[C@@H](O[C@@H]2[C@@H](C)[C@H](O[C@H]3C[C@@](C)(OC)[C@@H](O)[C@H](C)O3)[C@@H](C)C(=O)O[C@H](CC)[C@@]3(C)OC(=O)N(CCc4ccc5c(c4)OCCO5)[C@@H]3[C@@H](C)C(=O)[C@H](C)C[C@@]2(C)OC)[C@@H]1O [Example 54, 3'-N-Desmethyl-3'-N-propyl-11-deoxy-11-[carboxy-[3 4-(1,4-dioxano)phenethylamino)]}-6-O-methyl-erythromycin A 11,12-(cyclic carbamate)]"
7,7.24,"CC[C@H]1OC(=O)[C@H](C)[C@@H](O[C@H]2C[C@@](C)(OC)[C@@H](O)[C@H](C)O2)[C@H](C)[C@@H](O[C@@H]2O[C@H](C)C[C@H](N(C)CC3CC3)[C@H]2O)[C@](C)(OC)C[C@@H](C)C(=O)[C@H](C)[C@H]2N(CCc3ccc(Cl)c(Cl)c3)C(=O)O[C@]12C [Example 55, 3'-N-Desmethyl-3'-N-cyclopropylmethyl-11-deoxy-11-[carboxy-(3,4-dichlorophenethylamino)]-6-O-methyl-erythromycin A 11,12-(cyclic carbamate)]"
8,1.78,"CC[C@H]1OC(=O)[C@H](C)[C@@H](O[C@H]2C[C@@](C)(OC)[C@@H](O)[C@H](C)O2)[C@H](C)[C@@H](O[C@@H]2O[C@H](C)C[C@H](N(C)CCC[S+](C)[O-])[C@H]2O)[C@](C)(OC)C[C@@H](C)C(=O)[C@H](C)[C@H]2N(CCc3ccc(Cl)c(Cl)c3)C(=O)O[C@]12C (some centres unmarked) [Example 56, 3'-N-Desmethyl-3'-N-[3-(methylsulfoxy)propyl]-11-deoxy-11-[carboxy-(3,4-dichlorophenethylamino)]-6-O-methyl-erythromycin A 11,12-(cyclic carbamate)]"
9,9.12,"CCNC(=S)N(C)[C@H]1C[C@@H](C)O[C@@H](O[C@@H]2[C@@H](C)[C@H](O[C@H]3C[C@@](C)(OC)[C@@H](O)[C@H](C)O3)[C@@H](C)C(=O)O[C@H](CC)[C@@]3(C)OC(=O)N(CCc4ccc(Cl)c(Cl)c4)[C@@H]3[C@@H](C)C(=O)[C@H](C)C[C@@]2(C)OC)[C@@H]1O [Example 57, 3'-N-Desmethyl-3'-N-ethylthiourea-11-deoxy-11-[carboxy-(3,4-dichlorophenethylamino)]-6-O-methyl-erythromycin A 11,12-(cyclic carbamate)]"
10,1.55,"CC[C@H]1OC(=O)[C@H](C)[C@@H](O[C@H]2C[C@@](C)(OC)[C@@H](O)[C@H](C)O2)[C@H](C)[C@@H](O[C@@H]2O[C@H](C)C[C@H](N(C)Cc3ccc(CO)o3)[C@H]2O)[C@](C)(OC)C[C@@H](C)C(=O)[C@H](C)[C@H]2N(CCc3ccc(Cl)c(Cl)c3)C(=O)O[C@]12C [Example 58, 3'-N-Desmethyl-3'-N-[2-(5-hydroxymethyl)furyl]methyl-11-deoxy-11-[carboxy-(3,4-dichlorophenethylamino)]-6-O-methyl-erythromycin A 11,12-(cyclic carbamate)]"
11,3.72,"CC[C@H]1OC(=O)[C@H](C)[C@@H](O[C@H]2C[C@@](C)(OC)[C@@H](O)[C@H](C)O2)[C@H](C)[C@@H](O[C@@H]2O[C@H](C)C[C@H](N(C)CC3CC3)[C@H]2O)[C@](C)(OC)C[C@@H](C)C(=O)[C@H](C)[C@H]2N(CC3(c4ccc(Cl)c(Cl)c4)CC3)C(=O)O[C@]12C [Example 59, 3'-N-Desmethyl-3'-N-cyclopropylmethyl-11-deoxy-11-[carboxy-(α,α-cyclopropyl-3,4-dichlorophenethylamino)]-6-O-methyl-erythromycin A 11,12-(cyclic carbamate)]"
12,2.69,"CCCN(C)[C@H]1C[C@@H](C)O[C@@H](O[C@@H]2[C@@H](C)[C@H](O[C@H]3C[C@@](C)(OC)[C@@H](O)[C@H](C)O3)[C@@H](C)C(=O)O[C@H](CC)[C@@]3(C)OC(=O)N(CCNc4ccc(Cl)cc4)[C@@H]3[C@@H](C)C(=O)[C@H](C)C[C@@]2(C)OC)[C@@H]1O [Example 60, 3'-N-Desmethyl-3'-N-propyl-11-deoxy-11-[carboxy-(4-chloroanilinoethylamino)]-6-O-methyl-erythromycin A 11,12-(cyclic carbamate)]"
13,2.69,CC[C@H]1OC(=O)[C@H](C)[C@@H](O[C@H]2C[C@@](C)(OC)[C@@H](O)[C@H](C)O2)[C@H](C)[C@@H](O[C@@H]2O[C@H](C)C[C@H](N(C)C3CCCC3)[C@H]2O)[C@](C)(OC)C[C@@H](C)C(=O)[C@H](C)[C@H]2N(CCNc3ccc(Cl)cc3)C(=O)O[C@]12C [Example 61]
14,7.41,"CC[C@H]1OC(=O)[C@H](C)[C@@H](O[C@H]2C[C@@](C)(OC)[C@@H](O)[C@H](C)O2)[C@H](C)[C@@H](O[C@@H]2O[C@H](C)C[C@H](N(C)Cc3ncc[nH]3)[C@H]2O)[C@](C)(OC)C[C@@H](C)C(=O)[C@H](C)[C@H]2N(CCc3ccc(Cl)c(Cl)c3)C(=O)O[C@]12C [Example 63, 3'-N-Desmethyl-3'-N-(2-imidazolyl)methyl-11-deoxy-11-[carboxy-(3,4-dichlorophenethylamino)]-6-O-methyl-erythromycin A 11,12-(cyclic carbamate)]"
15,6.92,"CC[C@H]1OC(=O)[C@H](C)[C@@H](O[C@H]2C[C@@](C)(OC)[C@@H](O)[C@H](C)O2)[C@H](C)[C@@H](O[C@@H]2O[C@H](C)C[C@H](N(C)Cc3cccnc3)[C@H]2O)[C@](C)(OC)C[C@@H](C)C(=O)[C@H](C)[C@H]2N(CCc3ccc(Cl)c(Cl)c3)C(=O)O[C@]12C [Example 64, 3'-N-Desmethyl-3'-N-(3-pyridyl)methyl-11-deoxy-11-[carboxy-(3,4-dichlorophenethylamino)]-6-O-methyl-erythromycin A 11,12-(cyclic carbamate)]"
16,7.41,"CC[C@H]1OC(=O)[C@H](C)[C@@H](O[C@H]2C[C@@](C)(OC)[C@@H](O)[C@H](C)O2)[C@H](C)[C@@H](O[C@@H]2O[C@H](C)C[C@H](N(C)Cc3ccccn3)[C@H]2O)[C@](C)(OC)C[C@@H](C)C(=O)[C@H](C)[C@H]2N(CCc3ccc(Cl)c(Cl)c3)C(=O)O[C@]12C [Example 65, 3'-N-Desmethyl-3'-N-(2-pyridyl)methyl-11-deoxy-11-[carboxy-(3,4-dichlorophenethylamino)]-6-O-methyl-erythromycin A 11,12-(cyclic carbamate)]"
17,1.38,"CC[C@H]1OC(=O)[C@H](C)[C@@H](O[C@H]2C[C@@](C)(OC)[C@@H](O)[C@H](C)O2)[C@H](C)[C@@H](O[C@@H]2O[C@H](C)C[C@H](N(C)Cc3ccc([N+](=O)[O-])s3)[C@H]2O)[C@](C)(OC)C[C@@H](C)C(=O)[C@H](C)[C@H]2N(CCc3ccc(Cl)c(Cl)c3)C(=O)O[C@]12C [Example 66, 3'-N-Desmethyl-3'-N-[(5-nitro-2-thienyl]methyl-11-deoxy-11-[carboxy-(3,4-dichlorophenethylamino)]-6-O-methyl-erythromycin A 11,12-(cyclic carbamate)]"

# Reference: patent US5955440A, “Macrolide LHRH antagonists” (Abbott Laboratories, priority 1998, dated 1999)
